In ChEMBL document CHEMBL1681667, “Structure-activity relationship studies of sphingosine-1-phosphate receptor agonists with N-cinnamyl-β-alanine moiety” (Bioorg Med Chem Lett, 2011):

Experiments:
[1] = molecular target: Sphingosine 1-phosphate receptor 1 (Homo sapiens, UniProt P21453); assay: Agonist activity at human S1P1 receptor expressed in CHO cells assessed as intracellular calcium levels; type: functional, cell-based
[2] = molecular target: Sphingosine 1-phosphate receptor 3 (Homo sapiens, UniProt Q99500); assay: Agonist activity at human S1P3 receptor expressed in CHO cells assessed as intracellular calcium levels; type: functional, cell-based
Mus musculus = assay: Immunomodulatory activity in po dosed mouse assessed as peripheral blood lymphocyte lowering activity after 4 hrs; type: functional
[3] = AUC (infinity) in rat at 30 mg/kg, po; type: ADME, organism-based; parameters: time infinity, dose 30 mg/kg, route oral; settings: plasma
[4] = Cmax in rat at 30 mg/kg, po; type: ADME, organism-based; parameters: dose 30 mg/kg, route oral; settings: in vivo
[5] = Half life in rat at 30 mg/kg, po; type: ADME, organism-based; parameters: dose 30 mg/kg, route oral; settings: in vivo
[6] = molecular target: Sphingosine 1-phosphate receptor 2 (Homo sapiens, UniProt O95136); assay: Agonist activity at human S1P2 receptor expressed in CHO cells assessed as intracellular calcium levels; type: functional, cell-based
[7] = molecular target: Sphingosine 1-phosphate receptor 5 (Homo sapiens, UniProt Q9H228); assay: Agonist activity at human S1P5 receptor expressed in CHO cells assessed as intracellular calcium levels; type: functional, cell-based
Chain of Sphingosine 1-phosphate receptor 5 (Q9H228 whole entry): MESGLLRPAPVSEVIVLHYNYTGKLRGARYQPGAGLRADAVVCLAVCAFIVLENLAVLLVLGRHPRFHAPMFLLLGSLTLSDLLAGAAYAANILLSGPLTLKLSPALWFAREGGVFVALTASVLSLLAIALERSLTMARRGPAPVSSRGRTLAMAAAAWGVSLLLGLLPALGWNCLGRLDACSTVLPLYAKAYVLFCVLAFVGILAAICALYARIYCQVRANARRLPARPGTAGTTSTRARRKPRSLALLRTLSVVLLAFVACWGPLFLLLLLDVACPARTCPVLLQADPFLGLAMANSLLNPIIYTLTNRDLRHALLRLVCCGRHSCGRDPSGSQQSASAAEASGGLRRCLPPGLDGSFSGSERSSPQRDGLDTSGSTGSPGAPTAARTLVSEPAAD

Chain of Sphingosine 1-phosphate receptor 3 (Q99500 whole entry): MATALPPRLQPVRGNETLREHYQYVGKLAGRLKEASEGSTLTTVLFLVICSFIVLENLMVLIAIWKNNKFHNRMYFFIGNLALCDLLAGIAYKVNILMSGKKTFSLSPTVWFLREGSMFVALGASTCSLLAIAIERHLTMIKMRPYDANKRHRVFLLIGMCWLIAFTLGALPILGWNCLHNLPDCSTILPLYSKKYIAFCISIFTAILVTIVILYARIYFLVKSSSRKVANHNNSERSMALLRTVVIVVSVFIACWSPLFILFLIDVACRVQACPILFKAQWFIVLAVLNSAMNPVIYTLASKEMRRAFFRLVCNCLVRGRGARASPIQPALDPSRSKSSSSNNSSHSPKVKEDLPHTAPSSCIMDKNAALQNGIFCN
Chain of Sphingosine 1-phosphate receptor 1 (P21453 whole entry): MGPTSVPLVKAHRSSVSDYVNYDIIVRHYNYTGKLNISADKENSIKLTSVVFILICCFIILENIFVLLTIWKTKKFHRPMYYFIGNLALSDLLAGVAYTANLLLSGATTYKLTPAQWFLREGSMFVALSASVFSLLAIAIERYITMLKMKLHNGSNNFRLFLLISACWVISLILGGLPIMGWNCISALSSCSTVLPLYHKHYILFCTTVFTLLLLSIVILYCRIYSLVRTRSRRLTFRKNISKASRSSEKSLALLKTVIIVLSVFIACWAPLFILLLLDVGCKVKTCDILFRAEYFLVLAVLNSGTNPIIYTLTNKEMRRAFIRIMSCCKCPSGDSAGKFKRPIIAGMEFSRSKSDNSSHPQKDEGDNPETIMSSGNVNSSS
Chain of Sphingosine 1-phosphate receptor 2 (O95136 whole entry): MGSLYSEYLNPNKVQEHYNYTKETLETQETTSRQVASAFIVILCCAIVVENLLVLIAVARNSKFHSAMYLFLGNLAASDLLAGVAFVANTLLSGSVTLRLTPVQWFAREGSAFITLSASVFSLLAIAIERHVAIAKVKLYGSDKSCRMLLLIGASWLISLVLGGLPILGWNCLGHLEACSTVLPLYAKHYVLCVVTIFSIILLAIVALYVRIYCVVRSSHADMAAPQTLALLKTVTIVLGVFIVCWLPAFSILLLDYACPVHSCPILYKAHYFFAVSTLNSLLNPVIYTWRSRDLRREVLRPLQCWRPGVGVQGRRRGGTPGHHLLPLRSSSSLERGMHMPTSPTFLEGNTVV

Structure (SMILES) | EC50 [1] [nM] | EC50 [2] [nM] | ED50 (Mus musculus) [mg/kg] | AUC(0-inf) [3] [µg·h/mL] | Cmax [4] [ng/mL] | half-life [5] [h] | EC50 [6] [nM] | EC50 [7] [nM]
O=C(O)CCN1CC=C(c2ccc(OCCCc3ccccc3)cc2)CC1 | 45 | 1200 | 1.4 |  |  |  |  | 
O=C(O)CCN1CCC(c2ccc(OCCCc3ccccc3)cc2)CC1 | 1600 | > 10000 |  |  |  |  |  | 
O=C(O)CCNCCCc1ccc(OCCCCCCc2ccccc2)cc1 | 2700 | > 10000 |  |  |  |  |  | 
O=C(O)CCNCCCc1ccc(OCCCc2ccccc2)cc1 | 2600 | 9000 |  | 174 | 28000 | 3.8 |  | 
C/C(=C\c1ccc(OCCCc2ccccc2)cc1)CNCCC(=O)O | 33 | 1900 |  |  |  |  |  | 
C/C(=C/CNCCC(=O)O)c1ccc(OCCCc2ccccc2)cc1 | 930 | > 10000 |  |  |  |  |  | 
O=C(O)CCNCCCc1ccc(OCCCCc2ccccc2)cc1 | 1500 | > 10000 |  |  |  |  |  | 
C/C(=C\CNCCC(=O)O)c1ccc(OCCCc2ccccc2)cc1 | 21 | > 10000 | 0.69 |  |  | 7.4 |  | 
O=C(O)CCNCCCc1ccc(OCCCCCc2ccccc2)cc1 | 160 | 4200 | 26 |  |  |  | > 10000 | 170
O=C(O)CCNC/C=C/c1ccc(OCCCc2ccccc2)cc1 | 70 | 3300 | 4.6 |  |  |  |  | 
O=C(O)CCN1CCC/C(=C\c2ccc(OCCCc3ccccc3)cc2)C1 | 1500 | > 10000 |  |  |  |  |  | 
